Columns and labels:
DCAF15 = DCAF15 (Homo sapiens, UniProt Q66K64); assay: HTRF competition assay, binary interaction between compounds and DCAF15; assay type: binding; conditions: competition with Alexa Fluor 647 tracer, His-tagged DCAF15 complex
Description: Example 7: Measurement of Binary Interaction Between Compounds And DCAF15 Using Homogeneous Time Resolved Fluorescence (HTRF)
DCAF15 interactions with test compounds were monitored using HTRF competition assays (Cisbio, Bedford, MA). Test compounds were first collected in a 384-well microplate (cat. #781280, Grenier Bio-One, Monroe, NC) as 10 mM stocks in 100% dimethyl sulfoxide (DMSO). A second stock plate (cat. #781280, Grenier Bio-One, Monroe, NC) was prepared through 3-fold serial dilution in DMSO of the afore-mentioned stocks using a Mosquito HTS dispenser (mosquito@ HTS, SPT Labtech, Boston, MA). 0.2 ul of these diluted stocks were then dispensed into a 384-well Optiplate (cat. #6007290, Perkin Elmer, Waltham, MA) in duplicate wells, to assemble the assay plate. The tracer molecule containing an Alexa Fluor 647 probe was prepared in 25 mM HEPES pH 7.5, 100 mM NaCl, 0.1 mg/ml BSA, 0.005% Tween 20, 0.5 mM TCEP (dilution buffer) to 612 nM (2.04×). Separately, His-tagged DCAF15 complex was prepared at 32 nM (4×) in the dilution buffer, and mAb Anti-6His-Eu cryptate Gold (cat. #61H12KLA, Cisbio, Bedford, MA) at 4× dilution in the detection buffer (cat. #61 DB9RDF, Cisbio, Bedford, MA). These two solutions were mixed and incubated for 15 min at room temperature. 9.8 ul of the tracer solution and 10 ul of the DCAF15/mAb Anti-6His-Eu cryptate Gold mixture were added sequentially to each well in the assay plate. Reaction mixtures with no DCAF15 added were included as positive controls. The final mixture was incubated for an hour at room temperature and spun down briefly before data collection at 615 nm and 666 nm using En Vision 2104 Multilabel Plate Reader (Perkin Elmer, Bedford, MA). Binding was estimated based on ratiometric analysis and titration curves were generated in GraphPad Prism (7.00, GraphPad, La Jolla, CA).

DCAF15/RBM39 = DCAF15/RBM39 (Homo sapiens, UniProt Q14498+Q66K64); assay: AlphaLISA compound-induced DCAF15-RBM39 ternary complex formation; assay type: binding; conditions: His-tagged DCAF15 complex and biotin-carrying RBM39
Description: Example 6: Quantitative Evaluation of Compound-Induced Ternary Complex Formation Using Amplified Luminescent Proximity Homogeneous Assay
Compound-induced DCAF15-RBM39 ternary complex formation was monitored using AlphaLISA® assays (Perkin Elmer, Waltham, MA). Test compounds were first collected in a 384-well microplate (cat. #781280, Grenier Bio-One, Monroe, NC) as 2 mM stocks in 100% dimethyl sulfoxide (DMSO). These stocks were then serially diluted in DMSO by 3-fold into a new plate (cat. #781280, Grenier Bio-One, Monroe, NC) using a Mosquito HTS dispenser (mosquito@ HTS, SPT Labtech, Boston, MA). 0.2 ul of these diluted stocks were then dispensed into a 384-well Optiplate (cat. #6007290, Perkin Elmer, Waltham, MA) in duplicate wells, to assemble the final assay plate consisting of duplicated dose ranges. Separately, a protein mixture consisting of His-tagged DCAF15 complex and biotin-carrying RBM39, each at 408 nM (2.04×), was prepared in 50 mM HEPES, pH 7.5, 100 mM NaCl, 2 mM MgCl2, 0.1% BSA, 2 mM TCEP, 0.05% Tween-20 (dilution buffer). 9.8 ul of this protein mixture was then mixed with the compounds in the assay plate and incubated for one hour at room temperature. Reaction mixtures with no compounds added were included as negative controls, while a His-tagged and biotinylated GST protein was included to track general assay performance. Nickel Chelate AlphaLISA Acceptor beads (cat. #AL108M, Perkin Elmer, MA) and AlphaScreen Streptavidin Donor beads (cat. #6760002, Perkin Elmer, Waltham, MA) were prepared separately in the dilution buffer as 4× stocks (80 ug/ml). The beads were then added to the assay plate sequentially with incubation at room temperature for 1-2 hours after each addition. Signals were recorded using EnVision 2104 Multilabel Plate Reader (Perkin Elmer, Waltham, MA) and titration curves were generated in GraphPad Prism (7.00, GraphPad, La Jolla, CA).

Compound	IC50 (DCAF15) [µM]	EC50 (DCAF15/RBM39) [µM]
NCCc1ccc(COc2cccc(S(=O)(=O)Nc3ccc(Cl)c4c(Cl)c[nH]c34)c2)cc1 [Compound 59]	10 to 100	1 to 10
Cc1nc(-c2ccc(COc3cccc(S(=O)(=O)Nc4ccc(Cl)c5c(Cl)c[nH]c45)c3)cc2)no1 [Compound 63]	> 100	1 to 10
Cc1nc(-c2ccc(COc3ccc(S(=O)(=O)Nc4ccc(Cl)c5c(Cl)c[nH]c45)cc3)cc2)no1 [Compound 64]	> 100	> 100
O=S(=O)(Nc1ccc(Cl)c2c(Cl)c[nH]c12)c1cccc(OCc2ccc3c(c2)CNC3)c1 [Compound 65]	> 100	< 1
Cn1cc(CCOc2cccc(S(=O)(=O)Nc3ccc(Cl)c4c(Cl)c[nH]c34)c2)c2ccccc21 [Compound 92]	> 100	10 to 100
CCc1cnc(N2CCC(CCCOc3cccc(S(=O)(=O)Nc4ccc(Cl)c5c(Cl)c[nH]c45)c3)CC2)nc1 [Compound 100]	> 100	> 100
O=c1oc2ccccc2n1CCCOc1cccc(S(=O)(=O)Nc2ccc(Cl)c3c(Cl)c[nH]c23)c1 [Compound 112]	> 100	1 to 10
O=C(N[C@H]1CCc2ccccc21)c1ccc(S(=O)(=O)Nc2ccc(Cl)c3c(Cl)c[nH]c23)c(F)c1 [Compound 155]	> 100	> 100
O=C1CC[C@H](NC(=O)c2cccc(S(=O)(=O)Nc3ccc(Cl)c4c(Cl)c[nH]c34)c2F)CN1 [Compound 156]	1 to 10	< 1
O=C1CC[C@H](NC(=O)c2ccc(S(=O)(=O)Nc3ccc(Cl)c4c(Cl)c[nH]c34)c(F)c2)CN1 [Compound 157]	< 1	< 1
CN1C[C@@H](NC(=O)c2cccc(S(=O)(=O)Nc3ccc(Cl)c4c(Cl)c[nH]c34)c2F)CCC1=O [Compound 158]	< 1	< 1
CN1C[C@@H](NC(=O)c2ccc(S(=O)(=O)Nc3ccc(Cl)c4c(Cl)c[nH]c34)c(F)c2)CCC1=O [Compound 159]	< 1	< 1
O=C(N[C@H]1CCCCNC1=O)c1cccc(S(=O)(=O)Nc2ccc(Cl)c3c(Cl)c[nH]c23)c1F [Compound 160]	< 1	< 1
O=C(N[C@H]1CCCCNC1=O)c1ccc(S(=O)(=O)Nc2ccc(Cl)c3c(Cl)c[nH]c23)c(F)c1 [Compound 161]	< 1	< 1
CC(C)(C)OC(=O)NC1(CNC(=O)c2cccc(S(=O)(=O)Nc3ccc(Cl)c4c(Cl)c[nH]c34)c2F)CC1 [Compound 162]	1 to 10	1 to 10
CC(C)(C)OC(=O)NC1(CNC(=O)c2ccc(S(=O)(=O)Nc3ccc(Cl)c4c(Cl)c[nH]c34)c(F)c2)CC1 [Compound 163]	1 to 10	1 to 10
O=C(NC[C@H]1Cc2ccccc21)c1cccc(S(=O)(=O)Nc2ccc(Cl)c3c(Cl)c[nH]c23)c1F [Compound 164]	1 to 10	1 to 10
O=C(NC[C@H]1Cc2ccccc21)c1ccc(S(=O)(=O)Nc2ccc(Cl)c3c(Cl)c[nH]c23)c(F)c1 [Compound 165]	> 100	> 100
O=C(NCC1CCN(CCCc2ccccc2)CC1)c1cccc(S(=O)(=O)Nc2ccc(Cl)c3c(Cl)c[nH]c23)c1F [Compound 166]	1 to 10	< 1
O=C(NCC1CCN(CCCc2ccccc2)CC1)c1ccc(S(=O)(=O)Nc2ccc(Cl)c3c(Cl)c[nH]c23)c(F)c1 [Compound 167]	< 1	< 1
CC(C)C(=O)Nc1cccc(CNC(=O)c2cccc(S(=O)(=O)Nc3ccc(Cl)c4c(Cl)c[nH]c34)c2F)c1 [Compound 168]	1 to 10	1 to 10
CC(C)C(=O)Nc1cccc(CNC(=O)c2ccc(S(=O)(=O)Nc3ccc(Cl)c4c(Cl)c[nH]c34)c(F)c2)c1 [Compound 169]	1 to 10	1 to 10

Continued, values first:

IC50 (DCAF15) [µM]	EC50 (DCAF15/RBM39) [µM]	Compound
1 to 10	1 to 10	NCCc1ccc(COc2ccc(S(=O)(=O)Nc3ccc(Cl)c4c(Cl)c[nH]c34)cc2)cc1 [Compound 60]
1 to 10	< 1	O=S(=O)(Nc1ccc(Cl)c2c(Cl)c[nH]c12)c1ccc(OCc2ccc3c(c2)CNC3)cc1 [Compound 66]
1 to 10	< 1	Cn1ncnc1COc1ccc(S(=O)(=O)Nc2ccc(Cl)c3c(Cl)c[nH]c23)cc1 [Compound 67]
> 100	< 1	Cn1nnc2cc(COc3ccc(S(=O)(=O)Nc4ccc(Cl)c5c(Cl)c[nH]c45)cc3)ccc21 [Compound 68]
10 to 100	< 1	CC1(CCOc2cccc(S(=O)(=O)Nc3ccc(Cl)c4c(Cl)c[nH]c34)c2)CCNCC1 [Compound 74]
1 to 10	< 1	CC1(CCOc2ccc(S(=O)(=O)Nc3ccc(Cl)c4c(Cl)c[nH]c34)cc2)CCNCC1 [Compound 75]
> 100	1 to 10	CS(=O)(=O)c1ccc(CCOc2cccc(S(=O)(=O)Nc3ccc(Cl)c4c(Cl)c[nH]c34)c2)cc1 [Compound 76]
> 100	1 to 10	CS(=O)(=O)c1ccc(CCOc2ccc(S(=O)(=O)Nc3ccc(Cl)c4c(Cl)c[nH]c34)cc2)cc1 [Compound 77]
> 100	> 100	Cn1cc(CCOc2ccc(S(=O)(=O)Nc3ccc(Cl)c4c(Cl)c[nH]c34)cc2)c2ccccc21 [Compound 93]
> 100	< 1	O=S(=O)(Nc1ccc(Cl)c2c(Cl)c[nH]c12)c1cccc(OCCC[C@@H]2CCCN2)c1 [Compound 96]
1 to 10	< 1	O=S(=O)(Nc1ccc(Cl)c2c(Cl)c[nH]c12)c1ccc(OCCC[C@@H]2CCCN2)cc1 [Compound 97]
10 to 100	1 to 10	O=S(=O)(Nc1ccc(Cl)c2c(Cl)c[nH]c12)c1cccc(OCCCC2CCNCC2)c1 [Compound 98]
1 to 10	< 1	O=S(=O)(Nc1ccc(Cl)c2c(Cl)c[nH]c12)c1ccc(OCCCC2CCNCC2)cc1 [Compound 99]
10 to 100	< 1	CN1CCN(CCCOc2cccc(S(=O)(=O)Nc3ccc(Cl)c4c(Cl)c[nH]c34)c2)CC1 [Compound 104]
> 100	< 1	O=S(=O)(Nc1ccc(Cl)c2c(Cl)c[nH]c12)c1cccc(OCCCN2CC3(COC3)C2)c1 [Compound 108]
> 100	> 100	O=S(=O)(Nc1ccc(Cl)c2c(Cl)c[nH]c12)c1ccc(OCCCc2ccc3c(c2)OCO3)cc1 [Compound 110]
> 100	> 100	O=S(=O)(Nc1ccc(Cl)c2c(Cl)c[nH]c12)c1cccc(OCCCc2ccc3c(c2)OCO3)c1 [Compound 111]
> 100	1 to 10	O=c1oc2ccccc2n1CCCOc1ccc(S(=O)(=O)Nc2ccc(Cl)c3c(Cl)c[nH]c23)cc1 [Compound 113]
> 100	1 to 10	O=S(=O)(Nc1ccc(Cl)c2c(Cl)c[nH]c12)c1cccc(OCCCN2CCCc3ccccc32)c1 [Compound 114]
1 to 10	1 to 10	O=S(=O)(Nc1ccc(Cl)c2c(Cl)c[nH]c12)c1ccc(OCCCCc2ccccn2)cc1 [Compound 140]
1 to 10	< 1	CNCCCCCOc1ccc(S(=O)(=O)Nc2ccc(Cl)c3c(Cl)c[nH]c23)cc1 [Compound 144]
1 to 10	< 1	CNCCCCCCOc1ccc(S(=O)(=O)Nc2ccc(Cl)c3c(Cl)c[nH]c23)cc1 [Compound 148]

From patent US20240327351A1, “AMIDE AND ETHER SUBSTITUTED N-(1H-INDOL-7-YL)BENZENESULFONAMIDES AND USES THEREOF” (TRIANA BIOMEDICINES, INC., priority 2021, published 2024)
